Entries after “also recorded” stand apart in the source; their conditions may differ. Starred links: 1 amine or outer side, 2 acyl side, 3 side chain; linkers in the order of their positions; H or OH if unused. Non-standard residues stand in square brackets, D forms with d. Residues, ends and D or L forms follow the SMILES beside them. *: point of attachment. hPhe = N[C@@H](CCc1ccccc1)C(=O)O; Morpholide = C1CN(*)CCO1; CO = O=C([*:1])[*:2]; CH2F = FC*

This data set deals with cathepsin B (Rattus norvegicus, UniProt P00787). Briefly: Cathepsin B activity in living CC531 colon cancer cells (CSLM, (Z-Arg)^2 -cresyl violet). Type of data set: cell-based. On the procedure: An established rat colon carcinoma cell line, CC531, was used for all experiments. The parental cell line was obtained from a 1,2-dimethylhydrazine-induced moderately differentiated and weakly immunogenic colon adenocarcinoma in WAG-Rij rats (44). Cells were cultured in vitro at 37° C. as monolayers in Dulbecco's modification of Eagle's medium (ICN Biomedicals, Irvine, Ayrshire, UK) supplemented with 10% (w/v) fetal bovine serum, 2 mM glutamine, 100 IU penicillin/ml and 100 μg streptomycin/ml. Cells were washed in PBS and, after detachment by scraping and centrifugation (250 g, room temperature, 10 min), a single cell suspension at a final concentration of 1×10^6 cancer cells in 50 μl of PBS was obtained with a viability of at least 95% (45,46). Cell suspension were either used for cytochemical purposes or for in vivo administration to induce metastases in the liver.
Cathepsin B activity was detected in real-time in living CC531 cells and freshly prepared living rat hepatocytes after isolation by collagenase perfusion of livers of male mature rats after 24 h of starvation (47). At time point zero, cell preparations were diluted 20-fold in PBS containing either 10 μM (Z-Arg)^2 -cresyl violet (Enzyme Systems Products, Dublin, Calif.) as fluorogenic substrate for cathepsin B (48) or 10 μM substrate and 20 μM FMK (Protek, Dublin, Calif.), as selective cathepsin B inhibitor (40,41). The fluorogenic substrate is not fluorescent but after proteolytic cleavage, liberated cresyl violet is fluorescent. Synthesis of the substrate is described elsewhere in Ref. 48. The substrate was dissolved first in dimethyl formamide (final concentration in the incubation medium was 1% (v/v)). An aliquot of 100 μl of the cell suspensions was brought into a well formed by a stainless steel ring attached to a glass slide (49). Images of cells were captured in real-time with a Leica CSLM fitted to a Leica Fluovert inverted microscopic equipped with a PL APO oil-immersion objective (×63, NA 1.40). Excitation was performed at a wavelength of 560 nm and fluorescence was captured at greater than 580 nm. Excitation with the use of green light is harmless to living cells. The pinhole aperture was set at 100 giving an optimized image (50). With fixed pinhole, filter combination and a laser power setting adjusted to give minimal fading, the photomultiplier gain and photometric offset were optimized. Cells were subjected to optical serial sectioning after each 60 s of incubation up to 300 s. Images in the X-Y plane were recorded with intervals of 0.5 μm in the Z direction. For analysis, each optical section was averaged eight times. Images were recorded in a 512×512 pixel format. The size of each pixel represented 0.015 μm^2 in the object. […]

Chain of cathepsin B (P00787 80-333): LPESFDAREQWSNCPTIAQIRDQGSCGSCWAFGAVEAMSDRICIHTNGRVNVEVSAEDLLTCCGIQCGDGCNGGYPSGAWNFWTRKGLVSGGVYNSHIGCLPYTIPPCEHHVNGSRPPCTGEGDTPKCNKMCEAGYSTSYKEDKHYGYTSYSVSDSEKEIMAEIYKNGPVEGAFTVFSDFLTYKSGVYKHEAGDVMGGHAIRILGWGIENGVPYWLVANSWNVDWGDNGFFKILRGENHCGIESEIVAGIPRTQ

As for `O=C(CF)[C@H](CCc1ccccc1)NC(=O)[C@H](Cc1ccccc1)NC(=O)N1CCOCC1` [FMK, Mu-Phe-homoPhe-fluoro-methylketone] ({Morpholide-CO}-Phe-[hPhe]-CH2F), the “inhibition of intracellular cathepsin B activity” value (CC531 cells, 20 μM FMK) was “not intracellular cathepsin B activity; also recorded: Activity was present intracellularly”. Moreover, the “inhibition of plasma membrane-bound (extracellular) cathepsin B activity” value (CC531 cells, 20 μM FMK, 10 μM (Z-Arg)^2 -cresyl violet, 5 min, room temperature) is reported as “inhibited only extracellular; also recorded: inhibited the plasma membrane-bound activity completely; also recorded: Plasma membrane-bound activity was inhibited”. Further, the “uptake by living cells” value (inferred from lack of inhibition of intracellular activity) is given as “had not been taken up by the living cells”.

(Values after patent US6235493A, “Amino acid substituted-cresyl violet, synthetic fluorogenic substrates for the analysis of agents in individual in vivo cells or tissue” (priority 1998, dated 2001).)
